How the values were obtained:
Assay in all cases: relative viability (nuclei count vs DMSO), 5 days (fraction); higher = more cells survive
BX 795 + Luminespib = compound: O=C(NCCCNc1nc(Nc2cccc(NC(=O)N3CCCC3)c2)ncc1I)c1cccs1 [BX 795] + CCNC(=O)c1noc(-c2cc(C(C)C)c(O)cc2O)c1-c1ccc(CN2CCOCC2)cc1 [Luminespib] (partner 0.01 µM)
Outline: (§1)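 Relative viability was taken as the ratio of nuclei in treated wells to nuclei in vehicle wells. Lung cancer cell lines in 1536-well plates received compounds by pin tool one day after seeding, either one drug alone or a fixed anchor-drug dose plus five library-drug doses (not always all listed) in √10 steps. Nuclei were counted on 4× images after 5 days of treatment, and values are medians of duplicate plates.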

BX 795 + Vorinostat = compound: O=C(NCCCNc1nc(Nc2cccc(NC(=O)N3CCCC3)c2)ncc1I)c1cccs1 [BX 795] + O=C(CCCCCCC(=O)Nc1ccccc1)NO [Vorinostat] (partner 1 µM)
Outline: as §1

BX 795 + Pemetrexed = compound: O=C(NCCCNc1nc(Nc2cccc(NC(=O)N3CCCC3)c2)ncc1I)c1cccs1 [BX 795] + Nc1nc2[nH]cc(CCc3ccc(C(=O)N[C@@H](CCC(=O)O)C(=O)O)cc3)c2c(=O)[nH]1 [Pemetrexed] (partner 0.2 µM)
Outline: as §1

BX 795 + Foretinib = compound: O=C(NCCCNc1nc(Nc2cccc(NC(=O)N3CCCC3)c2)ncc1I)c1cccs1 [BX 795] + COc1cc2c(Oc3ccc(NC(=O)C4(C(=O)Nc5ccc(F)cc5)CC4)cc3F)ccnc2cc1OCCCN1CCOCC1 [Foretinib] (partner 0.25 µM)
Outline: as §1

BX 795 + Palbociclib = compound: O=C(NCCCNc1nc(Nc2cccc(NC(=O)N3CCCC3)c2)ncc1I)c1cccs1 [BX 795] + CC(=O)c1c(C)c2cnc(Nc3ccc(N4CCNCC4)cn3)nc2n(C2CCCC2)c1=O [Palbociclib] (partner 0.5 µM)
Outline: as §1

Row | Cell Line | relative viability (BX 795 + Luminespib; first compound 0.04 µM) | relative viability (BX 795 + Luminespib; first compound 0.1265 µM) | relative viability (BX 795 + Luminespib; first compound 0.4 µM) | relative viability (BX 795 + Luminespib; first compound 1.265 µM) | relative viability (BX 795 + Vorinostat; first compound 0.04 µM) | relative viability (BX 795 + Vorinostat; first compound 0.1265 µM) | relative viability (BX 795 + Vorinostat; first compound 0.4 µM) | relative viability (BX 795 + Vorinostat; first compound 1.265 µM) | relative viability (BX 795 + Pemetrexed; first compound 0.04 µM) | relative viability (BX 795 + Pemetrexed; first compound 0.1265 µM) | relative viability (BX 795 + Pemetrexed; first compound 0.4 µM) | relative viability (BX 795 + Pemetrexed; first compound 1.265 µM) | relative viability (BX 795 + Foretinib; first compound 0.04 µM) | relative viability (BX 795 + Foretinib; first compound 0.1265 µM) | relative viability (BX 795 + Foretinib; first compound 0.4 µM) | relative viability (BX 795 + Foretinib; first compound 1.265 µM) | relative viability (BX 795 + Palbociclib; first compound 0.04 µM) | relative viability (BX 795 + Palbociclib; first compound 0.1265 µM) | relative viability (BX 795 + Palbociclib; first compound 0.4 µM) | relative viability (BX 795 + Palbociclib; first compound 1.265 µM)
1 | COR-L 105 | 0.879 | 0.835 | 0.788 | 0.849 | 0.835 | 0.702 | 0.622 | 0.429 | 1.12 | 1.02 | 0.816 | 0.882 | 1.29 | 0.962 | 0.861 | 0.662 | 0.453 | 0.338 | 0.401 | 0.314
2 | NCI-H1355 | 0.721 | 0.787 | 0.874 | 0.579 | 0.649 | 0.63 | 0.696 | 0.487 | 0.798 | 0.977 | 1.09 | 1.01 | 1.03 | 1.07 | 1.09 | 0.773 | 0.418 | 0.346 | 0.388 | 0.393
3 | NCI-H2009 | 1.02 | 0.932 | 1.11 | 0.83 | 0.731 | 0.67 | 0.818 | 0.591 | 0.973 | 0.978 | 1.04 | 0.907 | 1.21 | 1.19 | 1.16 | 1.11 | 0.24 | 0.233 | 0.185 | 0.167
4 | HCC-827 | 0.746 | 0.657 | 0.823 | 0.644 | 0.756 | 0.689 | 0.901 | 0.79 | 0.266 | 0.288 | 0.245 | 0.241 | 1.18 | 1.12 | 1.09 | 1.04 | 0.551 | 0.501 | 0.478 | 0.484
5 | NCI-H2085 | 0.38 | 0.416 | 0.441 | 0.332 | 0.78 | 0.809 | 0.778 | 0.725 | 0.848 | 0.865 | 0.919 | 0.899 | 1.05 | 1.05 | 0.873 | 0.809 | 0.466 | 0.465 | 0.515 | 0.51
6 | RERF-LC-KJ | 1.41 | 1.27 | 1.29 | 0.753 | – | 0.667 | 0.59 | 0.541 | – | 0.444 | 0.443 | 0.467 | 0.907 | 0.851 | 0.889 | 0.888 | – | 1.08 | 1.1 | 0.895
7 | ChaGo-K-1 | 0.503 | 0.523 | 0.602 | 0.492 | 0.809 | 0.771 | 0.725 | 0.668 | 0.243 | 0.258 | 0.254 | 0.258 | 0.993 | 0.89 | 0.982 | 0.767 | 0.889 | 0.929 | 0.928 | 0.705
8 | NCI-H1734 | 0.173 | 0.209 | 0.154 | 0.149 | 0.888 | 0.773 | 0.482 | 0.34 | 0.348 | 0.421 | 0.33 | 0.398 | 0.836 | 0.982 | 0.83 | 0.456 | 0.404 | 0.377 | 0.35 | 0.354
9 | LK-2 | 0.186 | 0.174 | 0.175 | 0.189 | 0.398 | 0.37 | 0.286 | 0.239 | 0.277 | 0.237 | 0.269 | 0.24 | 0.937 | 1.51 | 1.31 | 1.1 | 0.83 | 0.862 | 0.635 | 0.559
10 | NCI-H522 | 1.41 | 1.23 | 1.02 | 1.01 | 0.9 | 0.864 | 0.875 | 0.72 | 1.13 | 1.16 | 1.08 | 1.02 | – | – | – | – | 0.958 | 0.969 | 0.943 | 0.982
11 | NCI-H1395 | 0.641 | 0.634 | 0.471 | 0.555 | 0.574 | 0.624 | 0.404 | 0.516 | 0.675 | 0.872 | 0.407 | 0.626 | 0.979 | 1.02 | 0.943 | 0.899 | 0.627 | 0.612 | 0.426 | 0.498
12 | HCC-78 | – | – | – | – | 0.474 | 0.419 | 0.399 | 0.352 | 0.913 | 0.888 | 0.873 | 0.883 | 0.665 | 0.537 | 0.596 | 0.5 | 0.56 | 0.437 | 0.49 | 0.433
13 | HCC-44 | 0.98 | 1.37 | 0.497 | 0.58 | 1.08 | 1.12 | 1.18 | 1.07 | 0.537 | 0.614 | 0.449 | 0.666 | – | – | – | – | 0.997 | 0.968 | 1.05 | 1.07
14 | NCI-H727 | 0.345 | 0.257 | 0.29 | 0.389 | 1.29 | 1.25 | 1.14 | 1.21 | – | – | – | – | 0.957 | 0.846 | 0.916 | 1.09 | 0.634 | 0.61 | 0.67 | 0.696
15 | HCC-366 | – | – | – | – | 0.311 | 0.295 | 0.224 | 0.0717 | 0.104 | 0.168 | 0.0915 | 0.149 | 0.973 | 0.959 | 0.94 | 0.235 | 0.477 | 0.362 | 0.289 | 0.415
16 | ABC-1 | 0.445 | 0.381 | 0.334 | 0.283 | 0.961 | – | 1.24 | 0.922 | – | – | – | – | 1.03 | 1.05 | 0.929 | 0.601 | 0.768 | – | 0.765 | 0.727
17 | NCI-H1792 | 0.477 | 0.336 | 0.432 | 0.384 | – | – | – | – | 0.918 | – | 0.882 | 0.533 | – | – | – | – | 0.724 | 0.633 | 0.643 | 0.613
18 | NCI-H596 | 1.21 | 1 | 1.14 | 0.764 | 0.669 | 0.585 | 0.623 | 0.594 | 0.464 | 0.476 | 0.456 | 0.527 | 0.873 | 0.745 | 1.07 | 0.787 | – | – | – | –
